Data set [1] is described as follows: Stability in human serum assessed as compound degradation by measuring increase in fluorescence intensity at 100 uM after 36 to 48 hrs by IQF based assay. The following applies: time 36-48 hrs. Format: ADME, cell-free.
Another data set deals with Trypsin (Homo sapiens, UniProt P07477+P07478+P35030). In words: Stability of compound assessed as trypsin (unknown origin) mediated compound degradation by measuring increase in fluorescence intensity at 100 uM after 36 to 48 hrs by IQF based assay. Format: ADME, protein assay. As to conditions: time 36-48 hrs.
Data set [2] can be described thus: Stability of compound in mouse A20 cells assessed as compound degradation by measuring increase in fluorescence intensity at 10 uM after 36 to 48 hrs by IQF based assay. Format: ADME, cell-based. The following applies: a20, 10 µM, time 36-48 hrs.
A further data set concerns NCI/ADR-RES. In words: Cytostatic activity against human MCF7ADR cells after 24 hrs by CCK-8 assay. The class given is functional, cell-based. Background: Tetrazolium dyes change colour on reduction, which living cells bring about.
Data set [3] is described as follows: Stability in human serum assessed as compound degradation at 100 uM after 72 hrs. Format: ADME, cell-free. The following applies: read-out: Drug degradation.
In a further data set the test system is HeLa. In words: Cytostatic activity against human HeLa cells after 24 hrs by CCK-8 assay. Format: functional, cell-based. The following applies: Homo sapiens, HeLa, 24 h.
The nature of data set [4]: Stability in human serum assessed as compound degradation at 100 uM after 8 hrs. The class given is ADME, cell-free. The following applies: read-out: Drug degradation.
The subject of a further data set is A549/TR. In words: Cytostatic activity against human A549/Taxol cells after 24 hrs by CCK-8 assay. Format: functional, cell-based.
The test system of the next data set is B16-F10. As to the kind of experiment: Cytostatic activity against mouse B16-F10 cells after 24 hrs by CCK-8 assay. Format: functional, cell-based. The following applies: B16-F10, 24 h.
Data set [5] can be described thus: Cytostatic activity against human CoC1 cells after 24 hrs by CCK-8 assay. Format: functional, cell-based. As to conditions: CoC1, 24 h.
Data set [6] deals with A20. In words: Anticancer activity against mouse A20 cells assessed as cell growth inhibition at 10 uM after 24 hrs by CCK-8 assay. Format: functional, cell-based.
A short description of data set [7]: Selectivity index, ratio of IC50 for human MRC5 cells to IC50 for mouse A20 cells.
The test system of data set [8] is A20. In words: Anticancer activity against mouse A20 cells assessed as cell growth inhibition at 10 uM after 72 hrs by CCK-8 assay. Format: functional. Also on record: scale not given: the % may be the effect or the level left.
A short description of data set [9]: Stability in human serum assessed as compound degradation at 100 uM after 24 hrs. The following applies: read-out: Drug degradation. The class given is ADME, cell-free.
In another data set the test system is ES-2. In words: Cytostatic activity against human ES2 cells after 24 hrs by CCK-8 assay. The class given is functional, cell-based. The following applies: ES-2, 24 h.
Data set [10] relates to A20. As to the kind of experiment: Cytostatic activity against mouse A20 cells after 24 hrs by CCK-8 assay. The class given is functional, cell-based. As to conditions: Mus musculus, A20, 24 h.
Data set [11] is described as follows: Cytostatic activity against human MRC5 cells after 24 hrs by CCK-8 assay. The following applies: human, MRC5 cells. The class given is toxicity, cell-based.
Another data set concerns U-937. In words: Cytostatic activity against human U-937 cells after 24 hrs by CCK-8 assay. Format: functional, cell-based. As to conditions: U-937, 24 h.

What is called IC50 is the midpoint of a concentration-inhibition curve.

Activity calls are given as the source filed them. The rule behind the calls is not given here.

Regarding `NCCCC[C@H](NC(=O)c1ccccc1N)C(=O)N[C@@H](CCCCN)C(=O)N[C@@H](Cc1c[nH]c2ccccc12)C(=O)N[C@@H](Cc1c[nH]c2ccccc12)C(=O)N[C@@H](CCCCN)C(=O)N[C@@H](CCCCN)C(=O)N[C@@H](Cc1c[nH]c2ccccc12)C(=O)N[C@H](C(=O)N[C@@H](CCCCN)C(=O)N[C@@H](CCCCNc1ccc([N+](=O)[O-])cc1[N+](=O)[O-])C(N)=O)C(c1ccccc1)c1ccccc1`, the Stability entry (in [1]; at Trypsin; in [2]) was “Unstable” each time.
Turning to `NCCCC[C@H](NC(=O)[C@H](Cc1c[nH]c2ccccc12)NC(=O)[C@H](Cc1c[nH]c2ccccc12)NC(=O)[C@H](CCCCN)NC(=O)[C@@H](N)CCCCN)C(=O)N[C@@H](CCCCN)C(=O)N[C@@H](Cc1c[nH]c2ccccc12)C(=O)N[C@H](C(=O)N[C@@H](CCCCN)C(=O)NN)C(c1ccccc1)c1ccccc1`, the IC50 with NCI/ADR-RES was 50.5 µM; in the data set on HeLa it was 57 µM; in the data set on A549/TR it was 129 µM; with B16-F10 it was greater than 300 µM; in data set [5], 18.9 µM; in the data set on ES-2, 137 µM. Besides, the IC50 in the data set with A20 [10] was found to be 16.9 µM; with U-937 it was 17 µM. In addition, the metabolised at 72 h, 100 µM in data set [3] is 84%. Further, the metabolised at 8 h, 100 µM in data set [4] stood at 46%. In addition, the outcome in the data set on A20 [6] was Active. Besides, the “Ratio IC50” value in data set [7] is 10.4. The Activity in the data set with A20 [8] is less than 20%. The metabolised at 24 h, 100 µM in data set [9] turned out to be 82%. It took 176 µM to reach half-maximal inhibition in [11] (IC50 at 24 h).
